Assay results taken from US12503436B2, “Compounds and compositions for treating conditions associated with STING activity” (NOVARTIS PHARMA AG, priority 2021, dated 2025).

These compounds were tested against STING (Homo sapiens, UniProt Q86WV6, G230A/H232R/R293Q/R71H) (assay: STING reporter assay in THP1-Dual KO-IFNAR2 cells (2′3′cGAMP stimulation, luciferase reporter)). Conditions: 15 μM 2′3′cGAMP stimulation, 24 h, read-out: Pharmaron, THP1_IFNAR2 STING 24 h Luci Normalized: GeoMean EC50.
Type: cell-based
Procedure, shortened: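 EC50 from secreted luciferase (QUANTI-Luc Plus luminescence of supernatant) after 24 h at 37 °C, 5% CO2. Cells: THP1-Dual KO-IFNAR2, treated with compound (0.0017-100 μM final) plus lipofected 2′3′cGAMP at 15 μM final.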

STING, sequence (Q86WV6 whole entry R71H/G230A/H232R/R293Q): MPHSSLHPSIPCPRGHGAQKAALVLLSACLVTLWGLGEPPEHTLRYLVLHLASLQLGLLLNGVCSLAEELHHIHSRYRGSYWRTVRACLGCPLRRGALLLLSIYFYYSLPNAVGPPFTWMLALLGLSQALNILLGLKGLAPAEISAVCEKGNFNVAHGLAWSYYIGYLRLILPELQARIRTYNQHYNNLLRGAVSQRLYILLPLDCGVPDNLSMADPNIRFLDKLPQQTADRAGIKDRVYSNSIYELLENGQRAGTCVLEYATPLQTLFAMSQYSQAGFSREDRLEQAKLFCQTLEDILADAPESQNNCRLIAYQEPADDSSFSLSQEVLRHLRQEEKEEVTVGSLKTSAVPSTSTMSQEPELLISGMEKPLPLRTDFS

Row | Structure (SMILES) | EC50
1 | CC(=O)Nc1c[nH]c2ccc(CCOc3ccc(C4CC(F)(F)C4)cc3)cc12 [Compound 225, N-(5-(2-(4-(3,3-difluorocyclobutyl)phenoxy)ethyl)-1H-indol-3-yl)acetamide] | 40 to 200 nM
2 | CC(=O)Nc1c[nH]c2ccc(OCC(F)(F)CN3CCC(F)(F)CC3)cc12 [Compound 112, N-(5-(3-(4,4-difluoropiperidin-1-yl)-2,2-difluoropropoxy)-1H-indol-3-yl)acetamide] | 5000 to 100000 nM
3 | CC1(C(=O)Nc2c[nH]c3ccc(OCC[C@@H]4C[C@@H]5CN(CC(F)(F)F)C[C@@H]5C4)cc23)CCCO1 (stereo partly drawn) [Compound 160, 2-methyl-N-(5-(2-((3aR,5r,6aS)-2-(2,2,2-trifluoroethyl)octahydrocyclopenta[c]pyrrol-5-yl)ethoxy)-1H-indol-3-yl)tetrahydrofuran-2-carboxamide] | 200 to 1000 nM
4 | O=C(Nc1c[nH]c2ccc(O[C@H]3C[C@@H](c4ccc(C(F)(F)F)cc4)C3)cc12)C1CC(O)C1 (stereo partly drawn) [Compound 338, 3-hydroxy-N-(5-(cis-3-(4-(trifluoromethyl)phenyl)cyclobutoxy)-1H-indol-3-yl)cyclobutane-1-carboxamide] | 200 to 1000 nM
5 | CC1(C(=O)Nc2c[nH]c3ccc(O[C@H]4C[C@@H](c5ccc(C(F)(F)F)cc5)C4)cc23)CCCO1 (stereo partly drawn) [Compound 358, 2-methyl-N-(5-(cis-3-(4-(trifluoromethyl)phenyl)cyclobutoxy)-1H-indol-3-yl)tetrahydrofuran-2-carboxamide] | 1000 to 5000 nM
6 | N#C[C@H]1C[C@@H]1C(=O)Nc1c[nH]c2ccc(O[C@H]3C[C@@H](c4ccc(C(F)(F)F)cc4)C3)cc12 (stereo in doubt) [Compound 332, cis-2-cyano-N-(5-(cis-3-(4-(trifluoromethyl)phenyl)cyclobutoxy)-1H-indol-3-yl)cyclopropane-1-carboxamide] | 200 to 1000 nM
7 | C[C@]1(C(=O)Nc2c[nH]c3ccc(OCCc4ccc(C(F)(F)F)cc4)cc23)C[C@@H](CO)C1 [Compound 531, cis-3-(hydroxymethyl)-1-methyl-N-(5-(4-(trifluoromethyl)phenethoxy)-1H-indol-3-yl)cyclobutane-1-carboxamide] | 40 to 200 nM
8 | CC(=O)Nc1c[nH]c2ccc(Oc3ccc(C(F)(F)F)nc3)cc12 [Compound 123, N-(5-((6-(trifluoromethyl)pyridin-3-yl)oxy)-1H-indol-3-yl)acetamide] | 5000 to 100000 nM
9 | CC(=O)Nc1c[nH]c2ccc(OC3CN(c4ccc(C(F)(F)F)cc4)C3)cc12 [Compound 233, N-(5-((1-(4-(trifluoromethyl)phenyl)azetidin-3-yl)oxy)-1H-indol-3-yl)acetamide] | 40 to 200 nM
10 | C[C@]1(C(=O)Nc2c[nH]c3ccc(OCC[C@@H]4C[C@@H]5CN(CC(F)(F)F)C[C@@H]5C4)cc23)CC[C@H](O)CC1 [Compound 504, (1r,4R)-4-hydroxy-1-methyl-N-(5-(2-((3aR,5r,6aS)-2-(2,2,2-trifluoroethyl)octahydrocyclopenta[c]pyrrol-5-yl)ethoxy)-1H-indol-3-yl)cyclohexane-1-carboxamide] | 200 to 1000 nM
11 | O=C(Nc1c[nH]c2ccc(O[C@H]3C[C@H](c4ccc(C(F)(F)F)cc4)C3)cc12)C1CC1 [Compound 147, N-(5-(trans-3-(4-(trifluoromethyl)phenyl)cyclobutoxy)-1H-indol-3-yl)cyclopropanecarboxamide] | 40 to 200 nM
12 | O=C(Nc1c[nH]c2ccc(O[C@H]3C[C@@H](c4ccc(C(F)(F)F)nc4)C3)cc12)[C@H]1C[C@H](CO)C1 [Compound 551, trans-3-(hydroxymethyl)-N-(5-(cis-3-(6-(trifluoromethyl)pyridin-3-yl)cyclobutoxy)-1H-indol-3-yl)cyclobutane-1-carboxamide] | 200 to 1000 nM
13 | O=C(Nc1c[nH]c2ccc(OCCc3ccc(C(F)(F)F)cc3)cc12)[C@H]1C[C@H](CO)C1 [Compound 534, trans-3-(hydroxymethyl)-N-(5-(4-(trifluoromethyl)phenethoxy)-1H-indol-3-yl)cyclobutane-1-carboxamide] | 40 to 200 nM
14 | N#CC1CCC1C(=O)Nc1c[nH]c2ccc(OCCc3ccc(C(F)(F)F)cc3)cc12 (stereo not drawn) [Compound 187, 2-cyano-N-(5-(4-(trifluoromethyl)phenethoxy)-1H-indol-3-yl)cyclobutane-1-carboxamide] | 200 to 1000 nM
15 | CC(=O)Nc1c[nH]c2ccc(CCOc3ccc(C4CCC4)cc3)cc12 [Compound 230, N-(5-(2-(4-cyclobutylphenoxy)ethyl)-1H-indol-3-yl)acetamide] | 40 to 200 nM
16 | CC(C)(C)C(=O)Nc1c[nH]c2ccc(O[C@H]3C[C@@H](c4ccc(C(F)(F)F)cc4)C3)cc12 [Compound 354, N-(5-(cis-3-(4-(trifluoromethyl)phenyl)cyclobutoxy)-1H-indol-3-yl)pivalamide] | 200 to 1000 nM

The next lines start with the values.

Row | EC50 | Structure (SMILES)
17 | 5000 to 100000 nM | CC(=O)Nc1c[nH]c2ccc(CNS(=O)(=O)c3ccc(C(F)(F)F)cc3)cc12 [Compound 265, N-(5-(((4-(trifluoromethyl)phenyl)sulfonamido)methyl)-1H-indol-3-yl)acetamide]
18 | 200 to 1000 nM | CC(C)(C)C(=O)Nc1c[nH]c2ccc(OCc3ccc(C(F)(F)F)cc3)cc12 [Compound 316, N-(5-((4-(trifluoromethyl)benzyl)oxy)-1H-indol-3-yl)pivalamide]
19 | 40 to 200 nM | O=C(Nc1c[nH]c2ccc(CCOc3ccc(C(F)(F)F)cc3)cc12)C1CC1(F)F (stereo not drawn) [Compound 595, 2,2-difluoro-N-(5-(2-(4-(trifluoromethyl)phenoxy)ethyl)-1H-indol-3-yl)cyclopropane-1-carboxamide]
20 | 40 to 200 nM | CO[C@H]1C[C@H](C(=O)Nc2c[nH]c3ccc(OCc4ccc(C(F)(F)F)cc4)cc23)C1 [Compound 300, trans-3-methoxy-N-(5-((4-(trifluoromethyl)benzyl)oxy)-1H-indol-3-yl)cyclobutane-1-carboxamide]
21 | 40 to 200 nM | CC(=O)Nc1c[nH]c2ccc(OCCc3ccc(C(F)(F)F)cc3)cc12 [Compound 136, N-(5-(4-(trifluoromethyl)phenethoxy)-1H-indol-3-yl)acetamide]
22 | 200 to 1000 nM | CCC(=O)Nc1c[nH]c2ccc(COc3ccc(C(F)(F)F)cc3)cc12 [Compound 130, N-(5-((4-(trifluoromethyl)phenoxy)methyl)-1H-indol-3-yl)propionamide]
23 | 200 to 1000 nM | O=C(Nc1c[nH]c2ccc(OCc3ccc(C(F)(F)F)cc3)cc12)C1CC(F)C1 (stereo not drawn) [Compound 326, 3-fluoro-N-(5-((4-(trifluoromethyl)benzyl)oxy)-1H-indol-3-yl)cyclobutane-1-carboxamide]
24 | 200 to 1000 nM | CC1(F)CC(C(=O)Nc2c[nH]c3ccc(CCOc4ccc(C(F)(F)F)cc4)cc23)C1 (stereo not drawn) [Compound 395, 3-fluoro-3-methyl-N-(5-(2-(4-(trifluoromethyl)phenoxy)ethyl)-1H-indol-3-yl)cyclobutane-1-carboxamide]
25 | 200 to 1000 nM | CC(C)(C)C(=O)Nc1c[nH]c2ccc(OCCc3ccc(C(F)(F)F)cc3)cc12 [Compound 186, N-(5-(4-(trifluoromethyl)phenethoxy)-1H-indol-3-yl)pivalamide]
26 | 200 to 1000 nM | CC(=O)Nc1c[nH]c2ccc(CC(O)Cc3ccc(C(F)(F)F)cc3)cc12 (stereo not drawn) [Compound 284, N-(5-(2-hydroxy-3-(4-(trifluoromethyl)phenyl)propyl)-1H-indol-3-yl)acetamide]
27 | 200 to 1000 nM | O=C(Nc1c[nH]c2ccc(OCCc3ccc(C(F)(F)F)cc3)cc12)C1CC1(F)F (stereo not drawn) [Compound 181, 2,2-difluoro-N-(5-(4-(trifluoromethyl)phenethoxy)-1H-indol-3-yl)cyclopropane-1-carboxamide]
28 | 200 to 1000 nM | CC(=O)Nc1c[nH]c2ccc(CCOc3cccc(C(F)(F)F)c3)cc12 [Compound 231, N-(5-(2-(3-(trifluoromethyl)phenoxy)ethyl)-1H-indol-3-yl)acetamide]
29 | 40 to 200 nM | CO[C@H]1C[C@H](C(=O)Nc2c[nH]c3ccc(OCCc4ccc(C(F)(F)F)cc4)cc23)C1 [Compound 211, trans-3-methoxy-N-(5-(4-(trifluoromethyl)phenethoxy)-1H-indol-3-yl)cyclobutane-1-carboxamide]
30 | 200 to 1000 nM | CC1(C)CC1C(=O)Nc1c[nH]c2ccc(OCc3ccc(C(F)(F)F)cc3)cc12 (stereo not drawn) [Compound 155, 2,2-dimethyl-N-(5-((4-(trifluoromethyl)benzyl)oxy)-1H-indol-3-yl)cyclopropane-1-carboxamide]
31 | 200 to 1000 nM | CC(=O)Nc1c[nH]c2ccc(CCOc3ccc(C(F)(F)F)cc3Br)cc12 [Compound 544, N-(5-(2-(2-bromo-4-(trifluoromethyl)phenoxy)ethyl)-1H-indol-3-yl)acetamide]
32 | 200 to 1000 nM | N#CC1(C(=O)Nc2c[nH]c3ccc(OCc4ccc(C(F)(F)F)cc4)cc23)CC1 [Compound 586, 1-cyano-N-(5-((4-(trifluoromethyl)benzyl)oxy)-1H-indol-3-yl)cyclopropane-1-carboxamide]
33 | 40 to 200 nM | C[C@]1(C(=O)Nc2c[nH]c3ccc(OCCc4ccc(C(F)(F)F)cc4)cc23)C[C@H](CO)C1 [Compound 530, trans-3-(hydroxymethyl)-1-methyl-N-(5-(4-(trifluoromethyl)phenethoxy)-1H-indol-3-yl)cyclobutane-1-carboxamide]
34 | 40 to 200 nM | CCC(=O)Nc1c[nH]c2ccc(OCCc3ccc(C(F)(F)F)cc3)cc12 [Compound 146, N-(5-(4-(trifluoromethyl)phenethoxy)-1H-indol-3-yl)propionamide]
35 | 200 to 1000 nM | CC(C)(C)CC(=O)Nc1c[nH]c2ccc(OCc3ccc(C(F)(F)F)cc3)cc12 [Compound 314, 3,3-dimethyl-N-(5-((4-(trifluoromethyl)benzyl)oxy)-1H-indol-3-yl)butanamide]
36 | 40 to 200 nM | C[C@H]1C[C@H](C(=O)Nc2c[nH]c3ccc(OCCc4ccc(C(F)(F)F)cc4)cc23)C1 [Compound 205, trans-3-methyl-N-(5-(4-(trifluoromethyl)phenethoxy)-1H-indol-3-yl)cyclobutane-1-carboxamide]
